Measurements as given in patent publication US6821967B2, “Substituted piperazine derivatives, the preparation thereof and their use as medicaments” (Boehringer Ingelheim Pharma KG, priority 1999, dated 2004).

melting point [°C] | SMILES
60 | O=C(NCC(F)(F)F)C1(CCCCN2CCN(c3nc4ccccc4n3Cc3ccccc3)CC2)c2ccccc2-c2ccccc21 [Example 13, 9-{4-[4-(1-benzyl-1H-benzimidazol-2-yl)-piperazin-1-yl]-butyl}-9H-fluorene-9-carboxylic acid-(2,2,2-trifluoro-ethyl)-amide]
166 to 168 | O=C(NCc1ccncc1)C1(CCCCN2CCN(c3ccc4ccccc4n3)CC2)c2ccccc2-c2ccccc21 [Example 88, 9-[4-(4-quinolin-2-yl-piperazin-1-yl)-butyl]-9H-fluorene-9-carboxylic acid-(pyridin-4-ylmethyl)-amide]
160 | O=C(NCc1ccc(F)cc1)C1(CCCCN2CCN(c3cnc4ccccc4n3)CC2)c2ccccc2-c2ccccc21 [Example 57, 9-[4-(4-quinoxalin-2-yl-piperazin-1-yl)-butyl]-9H-fluorene-9-carboxylic acid-4-fluoro-benzylamide]
140 | O=C(NCc1ccc(F)cc1)C1(CCCCN2CCN(c3ccc4c(Cl)cccc4n3)CC2)c2ccccc2-c2ccccc21 [Example 54, 9-{4-[4-(5-chloro-quinolin-2-yl)-piperazin-1-yl]-butyl}-9H-fluorene-9-carboxylic acid-4-fluoro-benzylamide]
155 | Cn1c(N2CCN(CCCCC3(C(=O)NCC(F)(F)F)c4ccccc4-c4ccccc43)CC2)nc2cc(Cl)ccc21 [Example 19, 9-{4-[4-(5-chloro-1-methyl-1H-benzimidazol-2-yl)-piperazin-1-yl]-butyl}-9H-fluorene-9-carboxylic acid-(2,2,2-trifluoro-ethyl)-amide]
153 | Cn1c(N2CCN(CCCCC3(C(=O)NCc4ccc(F)cc4)c4ccccc4-c4ccccc43)CC2)nc2cccnc21 [Example 63, 9-{4-[4-(3-methyl-3H-imidazo[4,5]-pyridin-2-yl)-piperazin-1-yl]-butyl}-9H-fluorene-9-carboxylic acid-4-fluoro-benzylamide]

More lines, now with the values behind:

SMILES | melting point [°C]
O=C(NCC(F)(F)C(F)(F)F)C1(CCCCN2CCN(c3ccc4ccccc4n3)CC2)c2ccccc2-c2ccccc21 [Example 86, 9-[4-(4-quinolin-2-yl-piperazin-1-yl)-butyl]-9H-fluorene-9-carboxylic acid-(2,2,3,3,3-pentafluoro-propyl)-amide] | 120
C[C@@H]1CN(c2nc3ccccc3s2)C[C@H](C)N1CCCCC1(C(=O)NCC(F)(F)F)c2ccccc2Oc2ccccc21 [Example 110, 9-[4-(4-benzothiazol-2-yl-cis-2,6-dimethyl-piperazin-1-yl)-butyl]-9H-xanthene-9-carboxylic acid-(2,2,2-trifluoro-ethyl)-amide] | 157
O=C(NCC(F)(F)F)C1(CCCCN2CCN(c3cnc4c(Cl)cccc4n3)CC2)c2ccccc2-c2ccccc21 [Example 23, 9-{4-[4-(5-chloro-quinoxalin-2-yl)-piperazin-1-yl]-butyl}-9H-fluorene-9-carboxylic acid-(2,2,2-trifluoro-ethyl)-amide] | 74
O=C(O)CNC(=O)C1(CCCCN2CCN(c3ccc4ccccc4n3)CC2)c2ccccc2-c2ccccc21 [Example 97, 9-[4-(4-quinolin-2-yl-piperazin-1-yl)-butyl]-9H-fluorene-9-carboxylic acid-(carboxy-methyl)-amide] | 127 to 129
O=C(NCCc1ccccc1)C1(CCCCN2CCN(c3ccc4ccccc4n3)CC2)c2ccccc2-c2ccccc21 [Example 92, 9-[4-(4-quinolin-2-yl-piperazin-1-yl)-butyl]-9H-fluorene-9-carboxylic acid-(phenethyl)-amide] | 55 to 57
O=C(NCC(F)(F)F)C1(CCCCN2CCN(c3ccc4cccc(Cl)c4n3)CC2)c2ccccc2-c2ccccc21 [Example 29, 9-{4-[4-(8-chloro-quinolin-2-yl)-piperazin-1-yl]-butyl}-9H-fluorene-9-carboxylic acid-(2,2,2-trifluoro-ethyl)-amide] | 121
C[C@@H]1CN(c2ccc3ccccc3n2)C[C@H](C)N1CCCCC1(C(=O)NCC(F)(F)F)c2ccccc2-c2ccccc21 [Example 42, 9-[4-(cis-2,6-dimethyl-4-quinolin-2-yl-piperazin-1-yl)-butyl]-9H-fluorene-9-carboxylic acid-(2,2,2-trifluoro-ethyl)-amide] | 169
O=C(NCC(F)(F)F)C1(CCCCN2CCN(c3ccc4c(Cl)cccc4n3)CC2)c2ccccc2-c2ccccc21 [Example 27, 9-{4-[4-(5-chloro-quinolin-2-yl)-piperazin-1-yl]-butyl}-9H-fluorene-9-carboxylic acid-(2,2,2-trifluoro-ethyl)-amide] | 142 to 143
O=C(NCC(F)(F)F)C1(CCCCN2CCN(c3ccc4cccc(O)c4n3)CC2)c2ccccc2-c2ccccc21 [Example 31, 9-{4-[4-(8-hydroxy-quinolin-2-yl)-piperazin-1-yl]-butyl}-9H-fluorene-9-carboxylic acid-(2,2,2-trifluoro-ethyl)-amide] | 159
COc1cccc2ccc(N3CCN(CCCCC4(C(=O)NCC(F)(F)F)c5ccccc5-c5ccccc54)CC3)nc12 [Example 30, 9-{4-[4-(8-methoxy-quinolin-2-yl)-piperazin-1-yl]-butyl}-9H-fluorene-9-carboxylic acid-(2,2,2-trifluoro-ethyl)-amide] | 74
